According to patent US10221163B2 (priority 2015, dated 2019):
Read-outs that look alike come from different tables or passages of the source.

Assays:
VIM-1 = VIM-1 (Pseudomonas aeruginosa (strain ATCC 15692 / DSM 22644 / CIP 104116 / JCM 14847 / LMG 12228 / 1C / PRS 101 / PAO1), UniProt A0A0F7KYQ8); assay: biochemical; settings: CCF2-FA substrate, 30 pM enzyme, 2 hours at 25° C.
Summary of the method: (§1)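 Test compound, enzyme and the FRET cephalosporin substrate CCF2-FA are incubated together for 2 hours at 25° C. Cleavage is followed by fluorescence, and IC50 values are derived from semi-logarithmic inhibition curves fitted with a 4-parameter model.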

[1] = tested on: Pseudomonas aeruginosa efflux+ (MB9798), IMP-1; assay type: cell-based; design: Concentration of metallo-β-lactamase inhibitor which restores susceptibility of efflux + (MB9798) strain to imipenem: unit not given here; settings: efflux+ MB9798; imipenem at 2 μg/mL; in the presence of a class A, C, D serine β-lactamase inhibitor closely related to relebactam
Summary of the method: (§2)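 Microbroth MIC tests in PAO1-background strains with fixed imipenem and/or ceftazidime, usually at the CLSI breakpoint, plus fixed class A/C β-lactamase inhibitor against AmpC. MBL inhibitor titrated; concentration restoring susceptibility recorded and compared as fold difference between efflux+ MB9798 and efflux− MB9799.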

[2] = tested on: Pseudomonas aeruginosa efflux− (MB9799), IMP-1; assay type: cell-based; settings: efflux− MB9799; imipenem at 2 μg/mL; in the presence of a class A, C, D serine β-lactamase inhibitor closely related to relebactam
Summary of the method: as §2

[3] = tested on: Serratia marcescens expressing IMP-1 (CL5741); assay type: cell-based; settings: IMP-1 strain CL5741, with imipenem 1 μg/ml, 95% inhibition of growth
Summary of the method: (§3)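 Clinical isolates (E. coli NDM-1, S. marcescens IMP-1, K. pneumoniae VIM-1) were diluted 1:100 from saline suspension into 1.1×CAMHB and exposed to test compound with imipenem at 1 μg/ml. Plates were incubated at 35° C for 22 hours to 24 hours, and growth was read by absorbance.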

[4] = tested on: Escherichia coli expressing NDM-1 (CLB30005, CLB30016); assay type: cell-based; settings: NDM-1 strain, with imipenem 1 μg/ml, 95% inhibition of growth
Summary of the method: as §3

[5] = tested on: Klebsiella pneumoniae expressing VIM-1 (IHMA599644); assay type: cell-based; settings: VIM-1 strain IHMA599644, with imipenem 1 μg/ml, 95% inhibition of growth
Summary of the method: as §3

NDM-1 = NDM-1 (Klebsiella pneumoniae, UniProt C7C422); assay: biochemical; assay type: biochemical; settings: fluorescence assay, CCF2-FA substrate, 1 pM enzyme, 2 hours at 25° C.; read-out: NDM-1 IC50
Summary of the method: as §1

IMP-1 = IMP-1 (Serratia marcescens, UniProt P52699); assay: biochemical; assay type: biochemical; settings: fluorescence assay, CCF2-FA substrate, 2 pM enzyme, 2 hours at 25° C.; read-out: IMP-1 IC50
Summary of the method: as §1

[6] = tested on: Pseudomonas aeruginosa MB9798 vs MB9799; settings: fold difference between efflux+ (MB9798) and efflux− (MB9799) strains; imipenem at 2 μg/mL
Summary of the method: as §2

[7] = fluorescence assay, read-out: VIM-1 IC50

Chain of NDM-1 (C7C422 whole entry, looked up, species assumed): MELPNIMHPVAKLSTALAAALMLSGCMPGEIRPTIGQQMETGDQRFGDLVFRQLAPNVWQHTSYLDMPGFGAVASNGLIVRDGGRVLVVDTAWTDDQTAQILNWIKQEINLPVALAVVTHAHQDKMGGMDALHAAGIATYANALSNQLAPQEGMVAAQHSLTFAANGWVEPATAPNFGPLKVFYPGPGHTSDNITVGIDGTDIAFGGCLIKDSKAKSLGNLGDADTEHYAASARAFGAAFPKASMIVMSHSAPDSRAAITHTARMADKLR
Chain of IMP-1 (P52699 whole entry, looked up, species assumed): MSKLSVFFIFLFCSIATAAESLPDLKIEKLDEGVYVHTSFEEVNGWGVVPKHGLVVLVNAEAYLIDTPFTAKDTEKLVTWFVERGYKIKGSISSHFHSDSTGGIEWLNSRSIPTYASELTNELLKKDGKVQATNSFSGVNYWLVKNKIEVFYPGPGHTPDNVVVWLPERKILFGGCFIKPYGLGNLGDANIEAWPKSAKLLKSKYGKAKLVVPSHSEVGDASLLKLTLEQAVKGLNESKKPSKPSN

SMILES | IC50 (VIM-1; [7]) [nM] | Concentration of metallo-β-lactamase inhibitor which restores susceptibility of efflux + (MB9798) strain to imipenem [1] | Concentration of metallo-β-lactamase inhibitor which restores susceptibility of efflux − (MB9799) strain to imipenem [2] | Serratia marcescens MITC95 [3] [µM] | Escherichia coli MITC95 [4] [µM] | Klebsiella pneumoniae MITC95 [5] [µM] | IC50 (NDM-1) [nM] | IC50 (IMP-1) [nM] | Efflux ratio [6] | IC50 (VIM-1; VIM-1 IC50, fluorescence assay) [nM]
NCCNc1cc(-c2ccc(S(=O)(=O)N[C@@H]3CCNC3)c(S(N)(=O)=O)c2-c2nn[nH]n2)ccn1 [Example 458, (R)-4-(2-((2-aminoethyl)amino)pyridin-4-yl)-N1-(pyrrolidin-3-yl)-3-(2H-tetrazol-5-yl)benzene-1,2-disulfonamide] | 0.132 | 3.125 | 0.7813 | 1.563 | 0.7813 | 1.563 | 0.532 | 3.77 | 4.00 | 
NCCNc1ncccc1-c1ccc(S(=O)(=O)N[C@@H]2CCNC2)c(S(N)(=O)=O)c1-c1nn[nH]n1 [Example 459, (R)-4-(2-((2-Aminoethyl)amino)pyridin-3-yl)-N1-(pyrrolidin-3-yl)-3-(2H-tetrazol-5-yl)benzene-1,2-disulfonamide] | 0.172 | 3.125 | 1.563 | 1.563 | 0.3906 | 1.563 | 1.17 | 12.5 | 2.00 | 
C[C@H](CN)NS(=O)(=O)c1ccc(-c2cccnc2NCCN)c(-c2nn[nH]n2)c1S(N)(=O)=O [Example 460, (R)-4-(2-((2-aminoethyl)amino)pyridin-3 yl)-N1-(1-aminopropan-2-yl)-3-(2H-tetrazol-5-yl)benzene-1,2-disulfonamide] | 0.148 | 3.125 | 1.563 | 1.563 | 0.7813 | 1.563 | 0.603 | 4.63 | 2.00 | 
NCCNS(=O)(=O)c1ccc(-c2ccnc(CN)c2)c(-c2nn[nH]n2)c1S(N)(=O)=O [Example 461, N1-(2-Aminoethyl)-4-(2-(aminomethyl)pyridin-4-yl)-3-(2H-tetrazol-5-yl)benzene-1,2-disulfonamide] | 4.77 | 12.5 | 3.125 | 3.125 | 1.563 | 6.25 | 42.1 | 50.4 | 4.00 | 
NCc1nc(-c2cccc(-c3ccc(S(=O)(=O)N[C@H]4CNC[C@H]4N)c(S(N)(=O)=O)c3-c3nn[nH]n3)c2)c[nH]1 [Example 462] |  | 1.563 | 0.7813 | 1.563 | 1.563 | 1.563 | 0.0954 | 1.29 | 2.00 | 0.227
NCc1nc2cc(-c3ccc(S(=O)(=O)NC[C@H](O)CN)c(S(N)(=O)=O)c3-c3nn[nH]n3)ccc2s1 [Example 463, (R)—N1-(3-amino-2-hydroxypropyl)-4-(2-(aminomethyl)benzo[d]thiazol-5-yl)-3-(2H-tetrazol-5-yl)benzene-1,2-disulfonamide] | 0.091 | 0.7813 | 0.7813 | 0.7813 | 0.7813 | 1.563 | 0.145 | 0.325 | 1.00 | 
NCc1nc2cc(-c3ccc(S(=O)(=O)NC[C@H](O)CN)c(S(N)(=O)=O)c3-c3nn[nH]n3)ccc2[nH]1 [Example 464, (R)—N1-(3-amino-2-hydroxypropyl)-4-(2-(aminomethyl)-1H-benzo[d]imidazole-5-yl)-3-(2H-tetrazol-5-yl)benzene-1,2-disulfonamide] | 0.198 | 0.7813 | 0.7813 | 1.563 | 0.7813 | 1.563 | 0.274 | 1.84 | 1.00 | 
NCc1nc2cc(-c3ccc(S(=O)(=O)NC[C@@H](O)CN)c(S(N)(=O)=O)c3-c3nn[nH]n3)ccc2[nH]1 [Example 465] | 0.133 | 0.7813 | 0.7813 | 1.563 | 0.7813 | 1.563 | 0.223 | 1.15 | 1.00 | 
NCCNS(=O)(=O)c1ccc(-c2ccc3[nH]c(CN)nc3c2)c(-c2nn[nH]n2)c1S(N)(=O)=O [Example 466, N1-(2-aminoethyl)-4-(2-(aminomethyl)-1H-benzo[d]imidazol-5-yl)-3-(2H-tetrazol-5-yl)benzene-1,2-disulfonamide] | 0.138 | 0.7813 | 0.7813 | 1.563 | 0.7813 | 1.563 | 0.359 | 0.967 | 1.00 | 
Cc1cc(-c2ccc(S(=O)(=O)NC[C@@H](O)CN)c(S(N)(=O)=O)c2-c2nn[nH]n2)cnc1N [Example 468, (S)-N1-(3-amino-2-hydroxypropyl)-4-(6-amino-5-methylpyridin-3-yl)-3-(2H-tetrazol-5-yl)benzene-1,2-disulfonamide] | 0.0869 | 1.563 | 0.7813 | 0.7813 | 0.3906 | 3.125 | 0.133 | 0.569 | 2.00 | 
NC[C@H](O)CNS(=O)(=O)c1ccc(-c2cnc(N)c(F)c2)c(-c2nn[nH]n2)c1S(N)(=O)=O [Example 469, (S)-N1-(3-amino-2-hydroxypropyl)-4-(6-amino-5-fluoropyridin-3-yl)-3-(2H-tetrazol-5-yl)benzene-1,2-disulfonamide] |  | 0.7813 | 0.7813 | 3.125 | 1.563 | 3.125 | 0.153 | 0.554 | 1.00 | 0.0868
NS(=O)(=O)c1c(S(=O)(=O)N[C@@H]2CCNC2)ccc(-c2cccc(Nc3nc(CO)cs3)c2)c1-c1nn[nH]n1 [Example 470, (R)-3′-((4-(hydroxymethyl)thiazol-2-yl)amino)-N4-(pyrrolidin-3-yl)-2-(2H-tetrazol-5-yl)-[1,1′-biphenyl]-3,4-disulfonamide] | 0.11 | 1.563 | 0.7813 | 1.563 | 0.7813 | 3.125 | 0.0496 | 0.134 | 2.00 | 
